Laboratory results from ChEMBL document CHEMBL3352663, “Inhibition of group IVA cytosolic phospholipase A2 by thiazolyl ketones in vitro, ex vivo, and in vivo” (J Med Chem, 2014).

Tested on: GVIA iPLA2 (Homo sapiens)
Test: Inhibition of human recombinant GVIA iPLA2 using 400 uM Triton X-100/98.3 uM PAPC/1.7 uM 14C-labeled PAPC substrate mixedmicelles at 1 uM

SMILES	inhibition
CCCCCCCCCCCCOCC(=O)c1nc(C(=O)OCC)cs1	92%
CCCCCCCCc1ccc(OCC(=O)c2nc3ccccc3s2)cc1	77%
CCCCCCCCc1ccc(OCC(=O)c2nccs2)cc1	67%
O=C(COc1ccccc1)c1nccs1	13%
O=C(COc1ccc(F)cc1)c1nccs1	5%
CCCCCCCCc1ccc(OCC(=O)c2nc(CC(=O)OCC)cs2)cc1	76%
CCCCCCCCCCCCOCC(=O)c1nc(CC(=O)OCC)cs1	91%
O=C(COc1ccc(-c2ccccc2)cc1)c1nccs1	23%
